Paper PMC7660916, “The Salmonella enterica serovar Typhimurium virulence factor STM3169 is a hexuronic acid binding protein component of a TRAP transporter” (Microbiology, 2020)

Molecular target: STM3169 (Salmonella enterica, UniProt Q8ZM02)
Assay: intrinsic fluorescence titration; supported by MST (KD […]) and thermal shift
Type: binding

Chain of STM3169 (Q8ZM02 entry or part of it): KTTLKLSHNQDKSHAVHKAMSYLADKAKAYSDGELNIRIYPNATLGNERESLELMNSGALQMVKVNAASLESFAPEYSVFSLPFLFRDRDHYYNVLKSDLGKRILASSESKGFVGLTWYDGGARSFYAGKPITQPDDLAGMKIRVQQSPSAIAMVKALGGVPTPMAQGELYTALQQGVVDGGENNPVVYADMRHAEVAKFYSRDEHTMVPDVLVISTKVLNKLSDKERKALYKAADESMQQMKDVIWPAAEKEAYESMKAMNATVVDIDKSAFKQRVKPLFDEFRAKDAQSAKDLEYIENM

In the case of `O=C(O)[C@H]1OC(O)[C@H](O)[C@@H](O)[C@@H]1O` (stereo partly drawn) [D-glucuronate], the Kd is reported as 170 ± 77 nM.
